Assay results as given in PMC8279156, “Design, synthesis, HER2 inhibition and anticancer evaluation of new substituted 1,5-dihydro-4,1-benzoxazepines” (Journal of Enzyme Inhibition and Medicinal Chemistry, 2021).
Where two headings read alike, the source gives them in different places.

Columns and labels:
[1] = tested on: MCF-7 human breast cancer cell line; conditions: previously described compounds, cited from earlier work
isolated HER2 = isolated HER2 (Homo sapiens, UniProt P04626); assay: HER2 inhibition assay, radiometric protein kinase assay (33PanQinase Activity Assay); type: biochemical; conditions: for ΔΔG Experiment (3 -> L): binding free energy difference relative to bozepinib (3), extracted from IC50 values; for IC50: isolated HER2, radiometric assay, 10 concentrations in singlicate
isolated HER2, sequence (P04626 23-1255): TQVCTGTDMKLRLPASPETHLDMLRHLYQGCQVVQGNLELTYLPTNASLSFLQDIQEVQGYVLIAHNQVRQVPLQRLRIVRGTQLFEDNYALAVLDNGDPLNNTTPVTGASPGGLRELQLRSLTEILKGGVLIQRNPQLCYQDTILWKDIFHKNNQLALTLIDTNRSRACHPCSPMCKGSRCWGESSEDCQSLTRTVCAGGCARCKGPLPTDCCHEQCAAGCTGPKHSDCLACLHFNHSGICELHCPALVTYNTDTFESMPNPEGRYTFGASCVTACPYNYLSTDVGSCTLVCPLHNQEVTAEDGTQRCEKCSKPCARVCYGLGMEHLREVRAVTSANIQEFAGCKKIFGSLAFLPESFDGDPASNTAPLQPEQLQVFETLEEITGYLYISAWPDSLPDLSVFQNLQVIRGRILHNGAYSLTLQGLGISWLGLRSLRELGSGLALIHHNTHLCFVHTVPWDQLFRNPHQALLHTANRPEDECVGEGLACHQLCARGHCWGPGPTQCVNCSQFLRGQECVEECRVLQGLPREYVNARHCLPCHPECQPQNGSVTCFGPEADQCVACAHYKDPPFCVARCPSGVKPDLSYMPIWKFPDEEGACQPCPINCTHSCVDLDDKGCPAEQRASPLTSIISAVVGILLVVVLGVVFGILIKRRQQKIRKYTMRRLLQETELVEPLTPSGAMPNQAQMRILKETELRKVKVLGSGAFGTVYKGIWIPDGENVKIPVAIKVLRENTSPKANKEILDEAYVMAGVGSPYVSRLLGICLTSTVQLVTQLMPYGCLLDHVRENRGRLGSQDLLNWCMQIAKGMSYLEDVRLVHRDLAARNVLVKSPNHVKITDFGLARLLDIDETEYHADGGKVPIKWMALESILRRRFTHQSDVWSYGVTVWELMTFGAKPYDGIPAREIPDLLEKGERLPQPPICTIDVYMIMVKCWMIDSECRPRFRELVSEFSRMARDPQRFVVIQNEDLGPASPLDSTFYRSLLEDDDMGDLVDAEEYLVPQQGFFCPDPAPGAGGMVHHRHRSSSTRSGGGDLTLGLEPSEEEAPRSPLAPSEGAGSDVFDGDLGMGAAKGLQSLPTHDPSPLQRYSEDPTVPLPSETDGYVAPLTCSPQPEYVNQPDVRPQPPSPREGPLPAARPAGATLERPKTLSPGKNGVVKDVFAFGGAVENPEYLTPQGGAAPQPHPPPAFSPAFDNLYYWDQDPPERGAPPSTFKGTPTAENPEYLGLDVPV
Experimental: The IC50 profile of the target compounds was determined using isolated HER2. IC50 values were measured by testing 10 concentrations (1 × 10 ^−4 M to 3 × 10 ^−9 M) of each compound in singlicate. A radiometric protein kinase assay (33PanQinase® Activity Assay) was used for measuring the kinase activity of HER2. The assay was performed in 96-well FlashPlatesTM from PerkinElmer (Boston, MA) in a 50 µl reaction volume. […] The reaction cocktails were incubated at 30 °C for 60 min. The reaction was halted with 50 µl of 2% (v/v) H3PO4, plates were aspirated and washed two times with 200 µl 0.9% (w/v) NaCl. Incorporation of ^33Pi was determined with a microplate scintillation counter (Microbeta, Wallac, Waltham, MA).
Human epidermal growth factor receptor 2 (HER2) is overexpressed in about 20% of all breast cancers. […] This prompted us to evaluated compounds 7–9 for their in vitro HER2 inhibitory effect. The IC50 profile of the target compounds was determined against isolated HER2 using a radiometric assay (Table 1).

[2] = tested on: MCF-7 human breast cancer cell line; assay: Proliferation assay (sulphorhodamine-B) in MCF-7; type: cell-based; conditions: MCF7, 72 h of treatment, mean ± SD
Experimental: (§1) MCF-7, HCT-116, A-375 and SKBR cells were grown at 37 °C in an atmosphere containing 5% CO2, with Dulbecco’s modified Eagle Medium (DMEM) (Gibco, Grand Island, NY) supplemented with 10% heat-inactivated foetal bovine serum (FBS) (Gibco), 2% L-glutamine, 2.7% sodium bicarbonate, 1% Hepes buffer, 40 mg/L gentamicin and 500 mg/L ampicillin.
(§2) Compounds were dissolved in DMSO and stored at −20 °C. For each experiment, the stock solutions were further diluted in medium to obtain the desired concentrations. The final solvent concentration in cell culture was ≤ 0.1% v/v of DMSO, a concentration without any effect on cell replication. Parallel cultures of MCF-7, HCT-116, A375 and SKBR-3 cells in medium with DMSO were used as controls.
(§3) The effect of the compounds on cell viability was assessed using the sulphorhodamine-B colorimetric assay. Cells suspension (1 × 10^3 cells/well) were seeded onto 24-well plates and incubated for 24 h. The cells were then treated with different concentrations of drugs in their respective culture medium and maintained with the treatment for 3 days. Three days later, wells were aspirated and fresh medium and drug were added. Then cell cultures were maintained for 3 additional days. Thereafter, a Titertek Multiscan (Flow, Irvine, CA) at 492 nm was used. The linearity of the SRB assay was evaluated with a cell number for each cell stock before each cell growth experiment. The IC50 values were calculated from semi-logarithmic dose–response curves by linear interpolation. All the experiments were plated in triplicate wells and were carried out twice.
(§4) We then investigated the effects of the target compounds on cell proliferation on the human breast cancer cell lines MCF-7 and SKBR-3, the human colon carcinoma cell line HCT-116 and the human malignant melanoma cell line A-375. The antiproliferative activity of 7–9 was evaluated using sulphorhodamine-B colorimetric assay after 72 h of treatment (Table 3).
(§5) All experiments were conducted in duplicate and gave similar results. The data are mean ± SD of three independent determinations. MCF-7: human breast cancer cell line; SKBR3: human breast cancer cell line; HCT-116: human colon cancer cell line and A-375: human melanoma cancer cell line.

[3] = tested on: SKBR3 human breast cancer cell line; assay: Proliferation assay (sulphorhodamine-B) in SKBR3; type: cell-based; conditions: SK-BR-3, 72 h of treatment, mean ± SD
Experimental: as §1, §2, §3, §4, §5

[4] = tested on: HCT-116 human colon cancer cell line; assay: Proliferation assay (sulphorhodamine-B) in HCT-116; type: cell-based; conditions: 72 h of treatment, mean ± SD
Experimental: as §1, §2, §3, §4, §5

[5] = tested on: A-375 human melanoma cancer cell line; assay: Proliferation assay (sulphorhodamine-B) in A-375; type: cell-based; conditions: 72 h of treatment, mean ± SD, read-out: IC50 A375
Experimental: as §1, §2, §3, §4, §5

[6] = tested on: MCF-7, SKBR3, HCT-116 and A-375 cell lines; assay: Proliferation assay (sulphorhodamine-B), all tumour cell lines studied; type: cell-based; conditions: Homo sapiens, span over the four cell lines, read-out: IC50 against all the tumour cell lines studied
Experimental: as §1
Compounds were dissolved in DMSO and stored at −20 °C. For each experiment, the stock solutions were further diluted in medium to obtain the desired concentrations. The final solvent concentration in cell culture was ≤ 0.1% v/v of DMSO, a concentration without any effect on cell replication. […]
The effect of the compounds on cell viability was assessed using the sulphorhodamine-B colorimetric assay. […] The linearity of the SRB assay was evaluated with a cell number for each cell stock before each cell growth experiment. The IC50 values were calculated from semi-logarithmic dose–response curves by linear interpolation. […]
as §4, with “3). […]” for “3).”

HER2 = assay: Western blot, HER2 expression in SKBR cells; type: cell-based, human; conditions: 5 µM
Experimental: (§6) We performed a western blot to study differences in protein expression after treatment with 5 µM of 7c.
(§7) SKBR cells seeded on 6-well plates were treated during 4 h and 16, lysed using RIPA Lysis Buffer System (Santa Cruz Biotechnology, Santa Cruz, CA) and quantified by Pierce™ BCA Protein Assay Kit (Thermo Fisher Scientific, Waltham, MA). Western blot was realised using 4× Laemmli sample buffer (Bio-Rad, Hercules, CA) and separated by SDS-polyacrylamide gel electrophoresis (SDS–PAGE) and then, transferred to PVDF membranes. Blocking was realised with milk in PBS 5%.
(§8) The following primary antibodies were used to detect protein expression,: caspase 3: ref-9662S (Cell Signalling, Beverly, MA), caspase 1(14F468): sc-56036 (Santa Cruz Biotechnology, Santa Cruz, CA), cytochrome-c (A-8): sc-13156 (Santa Cruz Biotechnology, Santa Cruz, CA), Bax(B-9): sc-7480 (Santa Cruz Biotechnology, Santa Cruz, CA) and β-actin: sc-47778 (Santa Cruz Biotechnology, Santa Cruz, CA). […] Protein–antibody complexes were made visible using enhanced chemiluminescence (ECL, Bonus, Amersham, Little Chalfont, UK) with the program IMAGE READER LAS-4000 in a LAS-4000 imaging system. Quantity One program were used to analyse the intensity of the signal. […]

Bax = assay: Western blot, Bax expression in SKBR cells; type: cell-based, human; conditions: 5 µM, 4 h and 16 h, control and treated cells
Experimental: as §6, §7, §8

cytochrome c = assay: Western blot, cytochrome c expression in SKBR cells; type: cell-based, human; conditions: 5 µM
Experimental: as §6, §7, §8

pro-caspase 3 = assay: Western blot, pro-caspase 3 expression in SKBR cells; type: cell-based, human; conditions: 5 µM
Experimental: as §6, §7, §8

caspase 1 = assay: Western blot, caspase 1 expression in SKBR cells; type: cell-based, human; conditions: 5 µM, 16 h of exposition
Experimental: as §6, §7, §8

[7] = read-out: in vitro antiproliferative activity against MCF-7

O=[N+]([O-])c1ccc(S(=O)(=O)N2CC(n3cnc4ncnc(Sc5ccccc5)c43)OCc3ccccc32)cc1 (stereo not shown) [Compound 1]
IC50 [1, 7]: 0.86 µM

O=[N+]([O-])c1ccccc1S(=O)(=O)N1CC(n2cnc3ncnc(Sc4ccccc4)c32)OCc2ccccc21 (stereo not shown) [Compound 2]
IC50 [1, 7]: 2.59 µM

O=[N+]([O-])c1ccccc1S(=O)(=O)N1CC(n2cnc3c(Cl)nc(Cl)nc32)OCc2ccccc21 (stereo not shown) [Compound 4]
IC50 ([1]; introduction, no reference number printed at the values, read-out: IC50 against the MCF-7 cell line): 0.383 µM

Cc1ccc(S(=O)(=O)N2CC(n3cnc4c(Cl)ncnc43)OCc3ccccc32)cc1 (stereo not shown) [Compound 7a, 6-Chloro-9-[1-(p-methylbenzenesulfonyl)-1,2,3,5-tetrahydro-4,1-benzoxazepine-3-yl]-9H-purine]
ΔΔG Experiment (3 -> L) (isolated HER2): >0.76 kcal/mol | IC50 (isolated HER2): > 100 µM | IC50 [2]: 0.12 µM | IC50 [3]: 1.08 ± 0.02 µM | IC50 [4]: 1.03 ± 0.05 µM | IC50 [5]: 0.78 ± 0.03 µM | IC50 [6]: ≤ 1 µM | melting point: 178 to 180 °C

Cc1ccc(S(=O)(=O)N2CC(n3cnc4c(Br)ncnc43)OCc3ccccc32)cc1 (stereo not shown) [Compound 7b, 6-Bromo-9-[1-(p-methylbenzenesulfonyl)-1,2,3,5-tetrahydro-4,1-benzoxazepine-3-yl]-9H-purine]
ΔΔG Experiment (3 -> L) (isolated HER2): >0.76 kcal/mol | IC50 (isolated HER2): > 100 µM | IC50 [2]: 9.57 ± 0.03 µM | IC50 [3]: 2.3 ± 0.04 µM | IC50 [4]: 3.1 ± 0.01 µM | IC50 [5]: 3.08 ± 0.01 µM | IC50 [6]: 2.3 to 9.57 µM | melting point: 169 to 171 °C

Cc1ccc(S(=O)(=O)N2CC(n3cnc4c(Cl)nc(Cl)nc43)OCc3ccccc32)cc1 (stereo not shown) [Compound 7c, 2,6-Dichloro-9-[1-(p-methylbenzenesulfonyl)-1,2,3,5-tetrahydro-4,1-benzoxazepine-3-yl]-9H-purine]
ΔΔG Experiment (3 -> L) (isolated HER2): >0.76 kcal/mol | IC50 (isolated HER2): > 100 µM | IC50 [2]: 0.86 ± 0.06 µM | IC50 [3]: 0.42 ± 0.01 µM | IC50 [4]: 0.86 ± 0.03 µM | IC50 [5]: 0.78 ± 0.05 µM | HER2 expression, normalised with β-actin and relative to control (value 1) (HER2; 4 h of treatment): 0.48 | HER2 expression, normalised with β-actin and relative to control (value 1) (HER2; 16 h of treatment): 0.07 | Bax expression (western blot) (Bax): none expression of Bax | cytochrome c expression, normalised value relative to control (value 1) (cytochrome c; 4 h of treatment): 0.93 | cytochrome c expression, normalised value relative to control (value 1) (cytochrome c; 16 h of treatment): 0.70 | pro-caspase 3 expression, normalised value relative to control (value 1) (pro-caspase 3; 4 h after treatment): 1.18 | pro-caspase 3 expression, normalised value relative to control (value 1) (pro-caspase 3; 16 h after treatment): 0.43 | caspase 1 expression, normalised value relative to control (value 1) (caspase 1): 3.1 | melting point: 193 to 195 °C

O=[N+]([O-])c1ccc(S(=O)(=O)N2CC(n3cnc4c(Sc5ccccc5)nc(Cl)nc43)OCc3ccccc32)cc1 (stereo not shown) [Compound 9a, 2-Chloro-6-phenylthio-9-[1-(p-nitrobenzenesulfonyl)-1,2,3,5-tetrahydro-4,1-benzoxazepine-3-yl]-9H-purine]
ΔΔG Experiment (3 -> L) (isolated HER2): -0.8 kcal/mol | IC50 (isolated HER2): 7.31 µM | IC50 [2]: 26.46 ± 0.03 µM | IC50 [3]: 71.69 ± 0.5 µM | IC50 [4]: 19.62 ± 0.01 µM | IC50 [5]: 13.3 ± 0.07 µM | melting point: 183 to 185 °C

O=[N+]([O-])c1ccc(S(=O)(=O)N2CC(n3cnc4c(Oc5ccccc5)nc(Cl)nc43)OCc3ccccc32)cc1 (stereo not shown) [Compound 9b, 2-Chloro-6-phenoxy-9-[1-(p-nitrobenzenesulfonyl)-1,2,3,5-tetrahydro-4,1-benzoxazepine-3-yl]-9H-purine]
IC50 (isolated HER2): 13.3 µM | IC50 [2]: 22.4 ± 0.03 µM | IC50 [3]: > 100 µM | IC50 [4]: > 100 µM | IC50 [5]: > 100 µM | melting point: 210 to 212 °C

CN(C)c1nc(Cl)nc2c1ncn2C1CN(S(=O)(=O)c2ccc([N+](=O)[O-])cc2)c2ccccc2CO1 (stereo not shown) [Compound 9c, 2-Chloro-6-dimethylamino-9-[1-(p-nitrobenzenesulfonyl)-1,2,3,5-tetrahydro-4,1-benzoxazepine-3-yl]-9H-purine]
ΔΔG Experiment (3 -> L) (isolated HER2): -0.44 kcal/mol | IC50 (isolated HER2): 14.4 µM | IC50 [2]: 20.7 ± 0.02 µM | IC50 [3]: 41.7 ± 0.79 µM | IC50 [4]: 87 ± 0.19 µM | IC50 [5]: > 100 µM | melting point: 203 to 205 °C

O=[N+]([O-])c1ccc(S(=O)(=O)N2CC(n3cnc4c(Nc5ccccc5)nc(Cl)nc43)OCc3ccccc32)cc1 (stereo not shown) [Compound 9d, 2-Chloro-6-anilino-9-[1-(p-nitrobenzenesulfonyl)-1,2,3,5-tetrahydro-4,1-benzoxazepine-3-yl]-9H-purine]
ΔΔG Experiment (3 -> L) (isolated HER2): 0.41 kcal/mol | IC50 (isolated HER2): 55.5 µM | IC50 [2]: 13.8 ± 0.02 µM | IC50 [3]: > 100 µM | IC50 [4]: > 100 µM | IC50 [5]: > 100 µM | melting point: 182 to 183 °C

O=[N+]([O-])c1ccccc1S(=O)(=O)N1CC(n2cnc3c(Sc4ccccc4)nc(Cl)nc32)OCc2ccccc21 (stereo not shown) [Compound 9e, 2-Chloro-6-phenylthio-9-[1-(o-nitrobenzenesulfonyl)-1,2,3,5-tetrahydro-4,1-benzoxazepine-3-yl]-9H-purine]
IC50 (isolated HER2): 11.5 µM | IC50 [2]: 20.5 ± 0.06 µM | IC50 [3]: > 100 µM | IC50 [4]: > 100 µM | IC50 [5]: 92.2 ± 8.9 µM | melting point: 212 to 214 °C

O=[N+]([O-])c1ccccc1S(=O)(=O)N1CC(n2cnc3c(Oc4ccccc4)nc(Cl)nc32)OCc2ccccc21 (stereo not shown) [Compound 9f, 2-Chloro-6-phenoxy-9-[1-(o-nitrobenzenesulfonyl)-1,2,3,5-tetrahydro-4,1-benzoxazepine-3-yl]-9H-purine]
IC50 (isolated HER2): 24.6 µM | IC50 [2]: 18 ± 0.02 µM | IC50 [3]: > 100 µM | IC50 [4]: > 100 µM | IC50 [5]: > 100 µM | melting point: 142 to 144 °C

O=[N+]([O-])c1ccccc1S(=O)(=O)N1CC(n2cnc3c(Nc4ccccc4)nc(Cl)nc32)OCc2ccccc21 (stereo not shown) [Compound 9g, 2-Chloro-6-anilino-9-[1-(o-nitrobenzenesulfonyl)-1,2,3,5-tetrahydro-4,1-benzoxazepine-3-yl]-9H-purine]
IC50 (isolated HER2): > 100 µM | IC50 [2]: 22.5 ± 0.02 µM | IC50 [3]: > 100 µM | IC50 [4]: > 100 µM | IC50 [5]: > 100 µM | melting point: 152 to 157 °C
